According to patent US8629164B2, “Inhibitors of NF-κB” (Profectus Biosciences, Inc., priority 2009, dated 2014):
“Also recorded” adds a separate entry of the source.

Key:
[1] = tested on: human peripheral blood mononuclear cells (hPBMCs); test: Cytotoxicity to hPBMCs (CellTiter-Glo); assay type: cell-based
Experimental: Human peripheral blood mononuclear cells (hPBMCs) were treated with example 1 or DHMEQ and the percentage of viable cells was assessed 24 hours post drug treatment. The graph represents the mean±the standard deviation of three replicate experiments.
The cytotoxicity profile of the compound of Example 1. The cytotoxicity of the compound of Example 1 was determined for human peripheral blood mononuclear cells (hPBMCs). As with the activity assay, the hPBMCs were treated with 0, 0.2, 1, 10, 20 and 40 μM of the compound of Example 1 for 2 hours, and then induced with 20 ng/ml TNF-α for 48 hours. The number of viable cells was determined using CellTiter-Glo luminescent cell viability assay (Promega (cat #G7573)). […] The selectivity index (the ratio of cytotoxicity CC50 to inhibitory IC50) is assigned to the compound of Example 1.

soluble IL-2Rα = test: Soluble IL-2Rα expression in PHA-P activated hPBMCs; assay type: cell-based, human; details: 10 μM, three days
Experimental: The graph is the mean of 2 independent experiments.
Soluble IL-2Rα is transcriptionally regulated by NF-κB. […] Human PBMCs were treated with 0, 0.2, 1, 10, 20 and 40 μM of the compound of Example 1 concurrent with PHA-P activation. The cells were cultured for an additional three days and media was harvested for marker assessment.

O=C(NC1=CC(=O)C2OC2C1O)c1cccnc1O (racemic) [Example 1, (±)-2-hydroxy-N-(2-hydroxy-5-oxo-7-oxabicyclo[4.1.0]hept-3-en-3-yl)nicotinamide]
selectivity (cytotoxicity CC50 to inhibitory IC50) compared to DHMEQ [1]: greater selectivity
cytotoxicity to hPBMCs ([1]; up to 40 μM tested): little detectable toxicity; also recorded: little cytotoxic effect
effect on sIL-2Rα (soluble IL-2Rα): statistically significant affect
